Test results taken from patent US9868748B2, “Thiazolopyrrolidine inhibitors of ROR- γ” (Vitae Pharmaceuticals, Inc., priority 2013, dated 2018).
Where two headings read alike, the source gives them in different places. Values belong to the compound of their own block, whether it stands above or below them.

Legend:
[1] = biological target: recombinant RORγ Ligand Binding Domain (LBD) protein (Homo sapiens (Human), UniProt P51449); test: Radio-Ligand RORγ Binding Assay (Assay 1); details: competition with 25-hydroxy [26,27-3H]-cholesterol, SPA, read-out: RORγ Binding Ki Range*
Chain of recombinant RORγ Ligand Binding Domain (LBD) protein (P51449 269-508): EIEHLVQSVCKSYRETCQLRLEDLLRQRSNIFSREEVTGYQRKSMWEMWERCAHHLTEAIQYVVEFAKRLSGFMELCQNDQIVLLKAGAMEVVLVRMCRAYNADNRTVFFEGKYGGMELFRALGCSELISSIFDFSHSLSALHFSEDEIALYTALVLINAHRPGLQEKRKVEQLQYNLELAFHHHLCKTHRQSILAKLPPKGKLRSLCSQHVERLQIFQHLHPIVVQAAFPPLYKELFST
In short: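 Scintillation proximity competition binding of 8.6 nM stock 25-hydroxy[26,27-3H]cholesterol to 24 nM stock 6×His-GST-tagged human RORγ LBD, in 50 mM HEPES pH 7.4 with NaCl, MgCl2, glycerol, CHAPS, β-octylglucopyranoside and DTT, room temperature. Inhibition referenced to DMSO and 10 μM T0901317; IC50 by four-parameter fit, converted to Ki using radioligand concentration and KD.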

[2] = biological target: full-length RORγt in Jurkat cells (Homo sapiens (Human), UniProt P51449); test: RORγt 5xRORE Assay in Jurkat Cells (Assay 2); format: cell-based; details: Nanoluc luciferase reporter, 16-18 hrs
Chain of full-length RORγt in Jurkat cells (P51449 other isoform, or with tags, fused parts or gaps): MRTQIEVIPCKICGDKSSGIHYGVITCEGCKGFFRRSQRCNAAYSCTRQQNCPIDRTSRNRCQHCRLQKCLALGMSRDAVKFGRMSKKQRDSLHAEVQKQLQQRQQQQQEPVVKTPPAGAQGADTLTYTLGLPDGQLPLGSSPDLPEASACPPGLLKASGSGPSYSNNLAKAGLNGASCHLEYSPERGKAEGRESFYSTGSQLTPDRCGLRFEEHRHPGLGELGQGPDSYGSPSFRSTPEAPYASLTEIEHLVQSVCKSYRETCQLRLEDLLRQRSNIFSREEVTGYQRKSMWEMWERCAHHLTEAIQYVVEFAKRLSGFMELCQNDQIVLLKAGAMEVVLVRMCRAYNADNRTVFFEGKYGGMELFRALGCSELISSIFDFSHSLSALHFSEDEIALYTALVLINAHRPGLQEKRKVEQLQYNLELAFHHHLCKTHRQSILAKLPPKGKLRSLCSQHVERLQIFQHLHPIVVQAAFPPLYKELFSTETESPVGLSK
In short: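 Jurkat cells co-transfected with full-length RORγt expression plasmid and a 5×RORE-driven secreted Nanoluc reporter, then plated at 80,000 cells/well in phenol-red-free RPMI with 10% delipidated FBS. Compounds added at 0.1% DMSO for 16–18 h at 37 °C; supernatant luciferase read for inverse agonism.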

[3] = Table 8, read-out: RORγt5X IC50 Range*
[4] = Table 9, read-out: RORγt5X IC50 Range*

SMILES: CCS(=O)(=O)c1ccc(CC(=O)Nc2nc3c(s2)CN(C[C@@H]2CC[C@H](C(F)(F)F)N(C)C2)[C@H]3C(C)C)cc1 (relative stereo)
- Ki ([1]; Table 9): < 100 nM
- IC50 [2, 4]: > 1000 nM

SMILES: CCS(=O)(=O)c1ccc(CC(=O)Nc2nc3c(s2)CN([C@@H](C)c2ccc(Cl)cn2)[C@H]3C(C)C)cc1 [I-A48]
- Ki ([1]; Table 8): < 100 nM
- IC50 [2, 3]: < 100 nM

SMILES: CC(C)[C@H]1c2nc(NC(=O)Cc3ccc(S(C)(=O)=O)cc3)sc2CN1Cc1ccc(C(F)(F)F)nc1 [I-B5]
- Ki ([1]; Table 8): < 100 nM
- IC50 [2, 3]: < 100 nM

SMILES: CCS(=O)(=O)c1ccc(CC(=O)Nc2nc3c(s2)CN(C[C@H]2CC[C@H](C(F)(F)F)CC2)[C@H]3C(C)C)cc1 [I-A17, 2-(4-(ethylsulfonyl)phenyl)-N—((S)-4-isopropyl-5-((trans-4-(trifluoromethyl)cyclohexyl)methyl)-5,6-dihydro-4H-pyrrolo[3,4-d]thiazol-2-yl)acetamide]
- Ki ([1]; Table 8): < 100 nM
- IC50 [2, 3]: < 100 nM

SMILES: CCS(=O)(=O)c1ccc(CC(=O)Nc2nc3c(s2)CN(Cc2ccc(C(F)(F)F)c(F)c2)[C@@H]3C(C)C)cc1
- Ki ([1]; Table 9): < 100 nM
- IC50 [2, 4]: 100 to 1000 nM

SMILES: CCS(=O)(=O)c1ccc(CC(=O)Nc2nc3c(s2)CN([C@@H](C)c2ccc(C(F)(F)F)cc2F)[C@H]3C(C)C)cc1 [I-A37]
- Ki ([1]; Table 8): < 100 nM
- IC50 [2, 3]: < 100 nM

SMILES: CCS(=O)(=O)c1ccc(CC(=O)Nc2nc3c(s2)CN(Cc2ccc(C#N)c(F)c2)[C@H]3C(C)C)cc1 [I-A4]
- Ki ([1]; Table 8): < 100 nM
- IC50 [2, 3]: < 100 nM

SMILES: CCS(=O)(=O)c1ccc(CC(=O)Nc2nc3c(s2)CN(Cc2ccc(-c4ccc(=O)n(C)c4)cc2)[C@H]3C(C)C)cc1 [I-A19, (S)-2-(4-(ethylsulfonyl)phenyl)-N-(4-isopropyl-5-(4-(1-methyl-6-oxo-1,6-dihydropyridin-3-yl)benzyl)-5,6-dihydro-4H-pyrrolo[3,4-d]thiazol-2-yl)acetamide]
- Ki ([1]; Table 8): < 100 nM
- IC50 [2, 3]: < 100 nM

SMILES: CCS(=O)(=O)c1ccc(CNC(=O)c2nc3c(s2)CN(Cc2ccc4c(c2)OC(F)(F)O4)[C@H]3C(C)C)nc1
- Ki ([1]; Table 9): < 100 nM
- IC50 [2, 4]: < 100 nM

SMILES: CCS(=O)(=O)c1ccc(CC(=O)Nc2nc3c(s2)CN(Cc2nnc(C(F)(F)F)o2)[C@H]3C(C)C)cc1 [I-A9]
- Ki ([1]; Table 8): < 100 nM
- IC50 [2, 3]: > 1000 nM

SMILES: CCOc1ccc(CN2Cc3sc(NC(=O)Cc4ccc(S(=O)(=O)CC)cc4)nc3[C@H]2CC)cc1
- Ki ([1]; Table 9): < 100 nM
- IC50 [2, 4]: 100 to 1000 nM

SMILES: CCS(=O)(=O)c1ccc(CNC(=O)c2nc3c(s2)CN(Cc2ccc(OC(F)F)cc2)[C@H]3C(C)C)cc1 [I-J6]
- Ki ([1]; Table 8): < 100 nM
- IC50 [2, 3]: < 100 nM

SMILES: CCS(=O)(=O)c1ccc(CC(=O)Nc2nc3c(s2)CN(C[C@H]2CC[C@@](OC)(C(F)(F)F)CC2)[C@H]3C(C)C)nc1 [I-C8]
- Ki ([1]; Table 8): < 100 nM
- IC50 [2, 3]: < 100 nM

SMILES: CC(C)c1ccc(CN2Cc3sc(NC(=O)Cc4ccc(S(C)(=O)=O)cc4)nc3[C@H]2C(C)C)cc1
- Ki ([1]; Table 9): < 100 nM
- IC50 [2, 4]: > 1000 nM

SMILES: CC1(C)c2nc(NC(=O)Cc3ccc(S(C)(=O)=O)cc3)sc2CN1Cc1ccc(Cl)cc1
- Ki ([1]; Table 9): 100 to 1000 nM
- IC50 [2, 4]: > 1000 nM

SMILES: CCS(=O)(=O)c1ccc(CC(=O)Nc2nc3c(s2)CN([C@H](C)Cc2ccccc2)[C@H]3C(C)C)cc1
- Ki ([1]; Table 9): < 100 nM
- IC50 [2, 4]: > 1000 nM

SMILES: CCS(=O)(=O)c1ccc(CC(=O)Nc2nc3c(s2)CN(Cc2ccc(-c4ccn(C)c(=O)c4)cc2)[C@H]3C(C)C)nc1 [I-C7]
- Ki ([1]; Table 8): < 100 nM
- IC50 [2, 3]: < 100 nM

SMILES: CCS(=O)(=O)c1ccc(CC(=O)Nc2nc3c(s2)CN(C[C@@H]2CC[C@H](C(F)(F)F)OC2)[C@H]3C(C)C)nc1 (single isomer, unassigned)
- Ki ([1]; Table 9): < 100 nM
- IC50 [2, 4]: > 1000 nM

SMILES: Cc1cc(CN2Cc3sc(NC(=O)Cc4ccc(C#N)cc4)nc3[C@@H]2C(C)C)ccc1C#N
- Ki ([1]; Table 9): < 100 nM
- IC50 [2, 4]: 100 to 1000 nM

SMILES: CCS(=O)(=O)c1ccc(CC(=O)Nc2nc3c(s2)CN(C[C@H]2CC[C@@](OC)(C(F)(F)F)CC2)[C@H]3C(C)C)nc1 (single isomer, unassigned)
- Ki ([1]; Table 9): < 100 nM
- IC50 [2, 4]: 100 to 1000 nM

SMILES: CCS(=O)(=O)c1ccc(CC(=O)Nc2nc3c(s2)CN(Cc2ccc(C#N)cn2)[C@@]3(C)C(C)C)cc1 [I-I1, (S)—N-(5-((5-cyanopyridin-2-yl)methyl)-4-isopropyl-4-methyl-5,6-dihydro-4H-pyrrolo[3,4-d]thiazol-2-yl)-2-(4-(ethylsulfonyl)phenyl)acetamide]
- Ki ([1]; Table 8): < 100 nM
- IC50 [2, 3]: < 100 nM

SMILES: CCS(=O)(=O)c1ccc(CNC(=O)c2nc3c(s2)CN(Cc2ccc(C#N)cc2)[C@H]3C(C)C)cc1 [I-J2]
- Ki ([1]; Table 8): < 100 nM
- IC50 [2, 3]: < 100 nM

SMILES: CC[C@@]1(C)c2nc(NC(=O)Cc3ccc(S(=O)(=O)CC)cc3)sc2CN1Cc1ccc(C#N)cc1
- Ki ([1]; Table 9): < 100 nM
- IC50 [2, 4]: 100 to 1000 nM

SMILES: CCS(=O)(=O)c1ccc(CC(=O)Nc2nc3c(s2)CN(C[C@H]2CC[C@](O)(C(F)(F)F)CC2)[C@H]3C(C)C)cc1 (single isomer, unassigned)
- Ki ([1]; Table 9): < 100 nM
- IC50 [2, 4]: < 100 nM

SMILES: CC(C)[C@@H]1c2nc(NC(=O)Cc3ccc(S(C)(=O)=O)cc3)sc2CN1Cc1cccc(Cl)c1
- Ki ([1]; Table 9): < 100 nM
- IC50 [2, 4]: > 1000 nM

SMILES: CC(C)[C@H]1c2nc(NC(=O)Cc3ccc(S(C)(=O)=O)cc3)sc2CN1[C@@H](C)c1ccc(C#N)c(F)c1 (single isomer, unassigned)
- Ki ([1]; Table 9): < 100 nM
- IC50 [2, 4]: < 100 nM

SMILES: CCS(=O)(=O)c1ccc(CC(=O)Nc2nc3c(s2)CN(Cc2ccc(-c4ccc(=O)n(C)c4)cc2)[C@H]3C(C)C)nc1
- Ki ([1]; Table 9): < 100 nM
- IC50 [2, 4]: < 100 nM

SMILES: CCS(=O)(=O)c1ccc(CC(=O)Nc2nc3c(s2)CN(Cc2cccc(C(F)(F)F)c2)[C@H]3C(C)C)cc1 [I-A8]
- Ki ([1]; Table 8): < 100 nM
- IC50 [2, 3]: > 1000 nM

SMILES: CCS(=O)(=O)c1ccc(CC(=O)Nc2nc3c(s2)CN(CCc2ccccc2)[C@@H]3C(C)C)cc1
- Ki ([1]; Table 9): < 100 nM
- IC50 [2, 4]: > 1000 nM

More lines, now with the values ahead:

- Ki ([1]; Table 8): < 100 nM
- IC50 [2, 3]: < 100 nM
SMILES: CC(C)[C@H]1c2nc(C(=O)NCc3ccc(S(C)(=O)=O)cc3)sc2CN1Cc1ccc(OC(F)F)cc1 [I-K2]

- Ki ([1]; Table 8): < 100 nM
- IC50 [2, 3]: < 100 nM
SMILES: CCS(=O)(=O)c1ccc(CC(=O)Nc2nc3c(s2)CN(Cc2ccc(Cl)cc2)[C@H]3C(C)C)nc1 [I-C1, (S)—N-(5-(4-chlorobenzyl)-4-isopropyl-5,6-dihydro-4H-pyrrolo[3,4-d]thiazol-2-yl)-2-(5-(ethylsulfonyl)pyridin-2-yl)acetamide]

- Ki ([1]; Table 9): < 100 nM
- IC50 [2, 4]: 100 to 1000 nM
SMILES: CCS(=O)(=O)c1ccc(CC(=O)Nc2nc3c(s2)CN(Cc2ccc(=O)n(C)c2)[C@H]3C(C)C)cc1

- Ki ([1]; Table 9): < 100 nM
- IC50 [2, 4]: > 1000 nM
SMILES: CCS(=O)(=O)c1ccc(CC(=O)Nc2nc3c(s2)CN(c2ncc(Cl)c(C)n2)[C@H]3C(C)C)cc1

- Ki ([1]; Table 9): < 100 nM
- IC50 [2, 4]: > 1000 nM
SMILES: CCS(=O)(=O)c1ccc(CC(=O)Nc2nc3c(s2)CN(C[C@@H]2CC[C@H](C(F)(F)F)O2)[C@H]3C(C)C)nc1 (single isomer, unassigned)

- Ki ([1]; Table 9): < 100 nM
- IC50 [2, 4]: > 1000 nM
SMILES: CCS(=O)(=O)c1ccc(CC(=O)Nc2nc3c(s2)CN(C[C@H]2CC[C@](C)(C#N)CC2)[C@H]3C(C)C)cc1 (single isomer, unassigned)

- Ki ([1]; Table 9): 100 to 1000 nM
- IC50 [2, 4]: < 100 nM
SMILES: CC[C@H]1c2nc(NC(=O)Cc3ccc(S(=O)(=O)CC)cc3)sc2CN1Cc1ncc(Cl)cn1

- Ki ([1]; Table 9): < 100 nM
- IC50 [2, 4]: 100 to 1000 nM
SMILES: CCS(=O)(=O)c1cnc(CNC(=O)c2nc3c(s2)CN(Cc2ccc(C#N)cc2)[C@H]3C(C)C)nc1

- Ki ([1]; Table 9): < 100 nM
- IC50 [2, 4]: 100 to 1000 nM
SMILES: CC(C)[C@H]1c2nc(NC(=O)Cc3ccc(C#N)cc3)sc2CN1Cc1ccc(C#N)cc1

- Ki ([1]; Table 9): < 100 nM
- IC50 [2, 4]: 100 to 1000 nM
SMILES: CC(C)[C@H]1c2nc(NC(=O)Cc3ccc(C#N)cc3)sc2CN1Cc1ccc(C#N)c(Cl)c1

- Ki ([1]; Table 8): < 100 nM
- IC50 [2, 3]: < 100 nM
SMILES: CCS(=O)(=O)c1ccc(CC(=O)Nc2nc3c(s2)CN([C@H](C)c2ccc(Cl)cn2)[C@H]3C(C)C)cc1 [I-A47]

- Ki ([1]; Table 9): < 100 nM
- IC50 [2, 4]: > 1000 nM
SMILES: CCS(=O)(=O)c1ccc(CC(=O)Nc2nc3c(s2)CN([C@H](C)Cc2ccc(F)cc2)[C@@H]3C(C)C)cc1

- Ki ([1]; Table 9): < 100 nM
- IC50 [2, 4]: < 100 nM
SMILES: CCS(=O)(=O)c1ccc(CC(=O)Nc2nc3c(s2)CN([C@H](C)c2ccc(C#N)cn2)[C@H]3C(C)C)cc1 (single isomer, unassigned)

- Ki ([1]; Table 9): < 100 nM
- IC50 [2, 4]: 100 to 1000 nM
SMILES: CCS(=O)(=O)c1ccc(CC(=O)Nc2nc3c(s2)CN(C[C@H]2CC[C@H](OC)CC2)[C@H]3C(C)C)cc1
